Consider 3 molecules from article PMC9424909, “Rutin alleviated acrolein-induced cytotoxicity in Caco-2 and GES-1 cells by forming a cyclic hemiacetal product” (Frontiers in Nutrition, 2022).

The structures appear in SMILES notation. Where “and” joins values, the source holds several entries; their conditions need not be identical. Identical values can stand only once. Like-named read-outs stand apart in the source and are kept apart here. Where only a bound is given, the exact number is not on record here.

Data set [1] is described as follows: in vitro simulated oral, gastric and intestinal digestion of RAC (HPLC). It is filed as in vitro ADME. Here is the method: The simulated oral, gastric, and intestinal digestion experiments of RAC were carried out according to Mamone et al. ([39]) with minor adjustments. One milliliter of RAC (1 mg/mL) was mixed with 4 mL SSF and stirred at 170 rpm for 2 min in lightproof condition to mimic the oral phase digestion. Based on the oral stage, 10 mL of SGF was added and reacted for another 2 h under the same condition to imitate the gastric phase digestion. To investigate the intestinal phase digestion, 20 mL of SIF was further added, and the mixture was stirred for another 2 h after simulated gastric digestion. For each stage, the same volume of deionized water was used in place of the corresponding digestive fluid as the control. At the end of each stage, 0.8 mL of the mixture was withdrawn and diluted with MeOH to 1.0 mL for HPLC analysis.
The standard curve of RAC was prepared as follows: one milligram of RAC was dissolved with MeOH to a final concentration of 1 mg/mL. The above solution was further used to prepare a series of RAC concentrations at 0.02, 0.04, 0.08, 0.2, and 1.0 mg/mL, respectively. The HPLC conditions for the determination of the content of RAC in the digestion mixture and the preparation of the standard curve of RAC were the same as those for the analysis of RAC, except that the detection wavelength was at 358 nm.

Data set [2] has as its system Caco-2 cells. In words: JC-1 staining, mitochondrial membrane potential (MMP). As to conditions: 24 h. Type of data set: cell-based, human. The procedure: (§1) The Caco-2 cell line and GES-1 cell line were obtained from iCell Bioscience (Shanghai, China). As described by Chai et al. ([40]) with a bit modification, the Caco-2 cells were cultured within a medium composed of DMEM supplemented with 1% (v/v) NEAA, 10% (v/v) FBS, and penicillin and streptomycin (100 U/mL). GES-1 cells were cultivated according to Xu et al. ([41]) with slight modifications as follows: DMEM medium including 1% (v/v) NEAA, 10% (v/v) FBS, and penicillin and streptomycin (100 U/mL). Cells were all maintained in a humidified incubator containing 5% CO2 and 95% air at 37°C.
(§2) After incubation with different concentrations of samples, the changes of MMP in Caco-2 and GES-1 cells were measured in accordance with Liu et al., with slight modifications ([43]). In brief, cells (1 × 10^4 cells/well) were exposed to different concentrations of ACR and RAC for 24 h, respectively. Then 500 μL of JC-1 staining solution was added into each well and the plate was further incubated at 37°C for 15 min. Cells were then rinsed twice with 1 mL of staining buffer and resuspended with 500 μL of staining buffer prior to MMP determination in the flow cytometry.

The test system of data set [3] is GES-1 cells. Described as above. Particulars: 24 h. Type of data set: cell-based, human. The procedure:
as §1, §2

The test system of data set [4] is Caco-2 cells. In words: apoptosis assay, Annexin-V FITC/PI flow cytometry. It is filed as cell-based, human. Particulars: 24 h. Here is the method:
as §1
(§3) Cell apoptosis assay was conducted in refer to Abas et al. ([42]) with modifications. In short, cells at a density of 1 × 10^4 cells/well were seeded in 96-well plates and incubated overnight, followed by exposure to different concentrations of ACR and RAC for another 24 h. After that, cells were rinsed twice with PBS, resuspended in 200 μL of Annexin-binding buffer, and finally stained with Annexin-V FITC and PI (5 μL each) for 10 min at 37°C in darkness. After adding 400 μL of Annexin-binding buffer, the signal intensity was measured using a FACSCalibur (Becton Dickinson, CA, USA) flow cytometry within 1 h, and data was analyzed with FlowJo software (Ashland, OR, USA).

The subject of data set [5] is GES-1 cells. In words: apoptosis assay, Annexin-V FITC/PI flow cytometry. It is filed as cell-based, human. As to conditions: GES-1, 60 μM. The procedure:
as §1, §3
(In general: In flow cytometry, cells or beads pass a laser one at a time.)

The subject of data set [6] is Caco-2 cells. In words: cell survival, CCK-8 assay. It is filed as cell-based, human. As to conditions: Caco-2. Here is the method:
as §1
(§4) The effects of ACR and RAC on cell survival (both Caco-2 and GES-1 cells) were measured by the CCK-8 assay ([41]). Briefly, cells (1 × 10^4 cells/well) were seeded into a 96-well plate and cultivated overnight. […] After cells were rinsed twice with PBS and resuspended in 100 μL of DMEM supplemented with 10% FBS, 10 μL of CCK-8 solution was added into each well and the plate was maintained for 1 h in the incubator. The plate was read at 450 nm on a microplate reader (BioTek, Epoch 2, USA), and all experiments were performed thrice. Cell viability was expressed as a percentage of the control group as shown below:
(§5) Cell viability (%) = A sample/A control × 100%
(§6) Where A sample was the absorbance (Abs) of the cells incubated with different concentrations of sample solutions, and A control was the Abs of the cells incubated without sample solution.
On the technique in general: Tetrazolium dyes change colour on reduction, which living cells bring about.

Data set [7] relates to GES-1 cells. In words: cell survival, CCK-8 assay. Type of data set: cell-based, human. Particulars: GES-1. Here is the method:
as §1, §4, §5, §6

Data set [8] in a line: cell survival, CCK-8 assay. Type of data set: cell-based, human. As to conditions: human; for viability at 24 h, 140 µM: incubation 24 h, read-out: cell viability (viable cell number); for IC50 at 48 h: read-out: IC50 (cytotoxicity). The procedure:
as §1, §4, §5, §6

For data set [9] the following is noted: incubating with equal concentrations of ACR for 12 h at 37°C ref 25; cited from earlier work.
Details of data set [10]: method as in PMID 19743801. Particulars: simulated physiological conditions ref 21; cited from earlier work.

As usually defined, the viability is a read-out of living cells in per cent, often relative to untreated cells. For orientation: IC50 means the concentration needed to halve the response being measured. In the case of `CC1OC(OCC2OC(Oc3c(-c4ccc(O)c(O)c4)oc4c5c(cc(O)c4c3=O)OC(O)CC5)C(O)C(O)C2O)C(O)C(O)C1O` (racemic) [RAC], the “The amount of RAC” value in data set [1] (Initial) is 2.99 ± 0.01 mg; in [1] (SGF 30 min (gastric)), 2.50 ± 0.06 mg and 2.50 ± 0.06 a mg; in [1] (SGF 60 min (gastric)), 2.51 ± 0.04 a mg; in data set [1] (SGF 90 min (gastric)) it was 2.36 ± 0.04 b mg; in data set [1] (SGF 120 min (gastric)), 2.26 ± 0.03 b mg; in data set [1] (SIF 30 min (intestinal)), 2.59 ± 0.01 a mg. Moreover, the “The amount of RAC” value is 2.55 ± 0.01 b mg in data set [1] (SIF 60 min (intestinal)); 2.56 ± 0.01 b mg in data set [1] (SIF 90 min (intestinal)); 2.50 ± 0.01 mg and 2.50 ± 0.01 c mg in data set [1] (SIF 120 min (intestinal)); 2.98 ± 0.01 mg in data set [1] (SSF 2 min (oral)). For the same molecule, the “Decrease of RAC” value is on record as 16.39% in data set [1] (SGF 30 min (gastric)); 16.05% in [1] (SGF 60 min (gastric)); 21.07% in data set [1] (SGF 90 min (gastric)); 24.41% in [1] (SGF 120 min (gastric)); 13.38% in data set [1] (SIF 30 min (intestinal)); 14.72% in [1] (SIF 60 min (intestinal)). Moreover, the results for the “Decrease of RAC” value in data set [1] (SIF 90 min (intestinal)), in [1] (SIF 120 min (intestinal)) and in data set [1] (SSF 2 min (oral)) were 14.38%, 16.39% and 0.33%, respectively. In addition, the “The content of RAC” value in data set [1] (SGF 60 min (gastric)) was 0.167 ± 0.0028 mg/mL; in data set [1] (SGF 90 min (gastric)) it was 0.157 ± 0.0029 mg/mL; in data set [1] (SIF 30 min (intestinal)), 0.074 ± 0.0002 mg/mL; in data set [1] (SIF 60 min (intestinal)), 0.073 ± 0.0002 mg/mL; in data set [1] (SIF 90 min (intestinal)), 0.073 ± 0.0002 mg/mL; in data set [1] (SIF 120 min (intestinal)), 0.072 ± 0.0004 mg/mL. The “The content of RAC” value in [1] (SSF 2 min (oral)) is 0.595 ± 0.0018 mg/mL. Besides, the “ratio of red/green fluorescence intensity” value with Caco-2 cells [2] (Caco-2, 20 μM) is 17.64 ± 0.69; in the data set with Caco-2 cells [2] (Caco-2, 40 μM), 15.16 ± 0.59; with Caco-2 cells [2] (Caco-2, 60 μM), 9.47 and 9.47 ± 0.37; in the data set on GES-1 cells [3] (GES-1, 20 μM) it was 13.32 ± 0.43; in the data set on GES-1 cells [3] (GES-1, 40 μM), 10.59 ± 0.33; in the data set with GES-1 cells [3] (GES-1, 60 μM), 6.72 and 6.72 ± 0.30. Besides, the apoptotic cells in the data set on Caco-2 cells [4] (Caco-2, 20 μM) was 8.3%; in the data set on Caco-2 cells [4] (Caco-2, 60 μM) it was 10.81%. Further, the “apoptotic rate, fold below the 60 μM ACR-treated group” value in the data set on GES-1 cells [5] is 5.4 fold. In addition, the apoptotic rate in the data set with GES-1 cells [5] (24 h) is recorded as 12.59%. The “viability of RAC-treated cells, fold higher than ACR-treated cells” value in the data set on Caco-2 cells [6] is recorded as 10 fold; in the data set on GES-1 cells [7] it was 6.5 fold. In addition, the viability at 24 h, 140 µM was over 75% in data set [8] (Caco-2 cells, Caco-2, 140 μM) and over 75% in data set [8] (GES-1 cells, GES-1, 140 μM). The IC50 at 48 h in [8] (Caco-2 cells, Caco-2, CCK-8) was over 140 µM; in [8] (GES-1 cells, GES-1, CCK-8), over 140 µM.

As for `COc1ccc([C@@H]2CC(=O)c3c(O)cc(O)cc3O2)cc1O` [hesperetin], in data set [9], the ACR eliminated was 94.87%.

Turning to `O=C(CCc1ccc(O)cc1)c1c(O)cc(O)cc1O` [phloretin], in data set [10], the ACR quenched entry is “more than 99%”.
